Here are results for 8 molecules from ChEMBL document CHEMBL1201862, “PubChem BioAssay data set” (2004).

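In this assay, cells in 96-well plates receive the compound at five concentrations for 48 hours. Endpoints are linearly interpolated between the surrounding concentrations. The concentration for 50% growth inhibition is given as GI50.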 Calls of active or inactive are those of the source. Rule as the data show it: active = GI50 up to about 1.1 µM and inactive = higher. Where only a bound is given, the exact number is not on record here.

Common to all, as to assay: NCI-60 cell line screen, 48 h
The subject of assay [1] is 786-0.
Assay [2] relates to ACHN.
The test system of assay [3] is CAKI-1.
The subject of assay [4] is CCRF-CEM.
Assay [5] has as its system HCC 2998.
The test system of assay [6] is HOP-62.
Assay [7] has as its system HOP-92.
The subject of assay [8] is K562.
For assay [9], the system named is KM12.
Assay [10] deals with LOX IMVI.
The subject of assay [11] is MDA-MB-231.
Assay [12] has as its system MDA-MB-435.
The subject of assay [13] is MDA-N.
For assay [14], the system named is NCI-H522.
Assay [15] deals with OVCAR-5.
Assay [16] deals with OVCAR-8.
The test system of assay [17] is RPMI-8226.
Assay [18] concerns SK-MEL-2.
Assay [19] relates to SN12C.
For assay [20], the system named is TK-10.

As to `C=C1C(=O)OC2C1C(OC(=O)/C(C)=C/C)CC(O)(CCl)C1C(O)C3OC3(C)C21O` (stereo not given), the GI50 was 15.9 µM (inactive) in assay [1]; 19.9 µM (inactive) in assay [2]; 13.2 µM (inactive) in [3]; 12.4 µM (inactive) in assay [4]; > 50 µM (inactive) in [5]; > 50 µM (inactive) in [6]. Further, the GI50 in assay [7] was 24.9 µM (inactive); in [8] it was 18 µM (inactive); in [9], > 50 µM (inactive); in [10] it was 18.9 µM (inactive); in [11] it was > 50 µM (inactive); in assay [12] it was 48.5 µM (inactive). For the same molecule, the GI50 in assay [13] is 26.6 µM (inactive); in assay [14] it was 0.7 µM (active); in assay [15], > 50 µM (inactive); in assay [16] it was 13.2 µM (inactive); in assay [17], 16.1 µM (inactive); in assay [18] it was > 50 µM (inactive). Moreover, the GI50 in assay [19] was > 50 µM (inactive); in assay [20] it was 40.1 µM (inactive).

Take `Nc1cc2c(c3ccccc13)C(CCl)CN2C(=O)c1cc2cc(NC(=O)Nc3ccc4[nH]c(C(=O)N5CC(CCl)c6c5cc(N)c5ccccc65)cc4c3)ccc2[nH]1` (stereo not given): the GI50 in assay [1] was 0.0153 µM (active); in assay [2], < 0.01 µM (active); in assay [3], < 0.01 µM (active); in [4] it was < 0.01 µM (active); in assay [5] it was 0.259 µM (active); in [6], 0.0568 µM (active). Also, the GI50 is 2.19 µM (inactive) in assay [7]; 0.367 µM (active) in [8]; 1.08 µM (active) in [9]; 0.0358 µM (active) in assay [10]; 0.27 µM (active) in [11]; 0.548 µM (active) in assay [12]. For the same molecule, the GI50 in [13] was 0.292 µM (active); in assay [14] it was 0.0509 µM (active); in assay [15], 0.612 µM (active); in assay [16] it was 0.0678 µM (active); in [17] it was 1.4 µM (inactive); in assay [18], 0.995 µM (active). Further, the GI50 was 0.0656 µM (active) in [19] and 1.42 µM (inactive) in assay [20].

On to `Oc1nc2c(c(-c3cccc(Cl)c3)n1)COC/C2=C\c1cccc(Cl)c1`, for which the GI50 in assay [1] was > 100 µM (inactive); in assay [2], > 100 µM (inactive); in [3], > 100 µM (inactive); in assay [4], 64.4 µM (inactive); in assay [5], > 100 µM (inactive); in [6], > 100 µM (inactive). The GI50 in assay [7], in assay [8], in [9], in [10], in assay [11] and in assay [12] was > 100 µM (inactive) in each case. The GI50 in assay [13] was > 100 µM (inactive); in assay [14], > 100 µM (inactive); in [15] it was > 100 µM (inactive); in assay [16] it was > 100 µM (inactive); in [17], 69.7 µM (inactive); in [18], > 100 µM (inactive). Besides, the GI50 in assay [19] and in [20] was > 100 µM (inactive) each time.

As to `COC(=O)C1=C(C)NC(C)=C(C(=O)OC)C1c1cccc(/[N+]([O-])=C/c2ccccc2)c1`, the GI50 is 17.7 µM (inactive) in assay [1]; 17.1 µM (inactive) in assay [2]; 18.1 µM (inactive) in [3]; 11 µM (inactive) in [4]; > 100 µM (inactive) in assay [5]; > 100 µM (inactive) in assay [6]. Moreover, the GI50 in [7] is 23.4 µM (inactive); in assay [8] it was > 10 µM (inactive); in assay [9], > 100 µM (inactive); in assay [10] it was 33.7 µM (inactive); in assay [11], 17.5 µM (inactive); in assay [12], 19.7 µM (inactive). For the same molecule, the GI50 in assay [13] was 17.6 µM (inactive); in assay [14], 16.4 µM (inactive); in [15], > 100 µM (inactive); in [16] it was 17.5 µM (inactive); in assay [17], 24.4 µM (inactive); in [18] it was 75 µM (inactive). Moreover, the GI50 in assay [19] was > 10 µM (inactive); in [20], 38.9 µM (inactive).

As to `Clc1ccc2c(NCCCCN3OC3c3ccccc3)ccnc2c1` (stereo not given), the GI50 is 2.47 µM (inactive) in [1]; 9.44 µM (inactive) in assay [2]; 8.77 µM (inactive) in [3]; 2.15 µM (inactive) in [4]; 2.89 µM (inactive) in assay [5]; 4.75 µM (inactive) in assay [6]. The GI50 is 10.5 µM (inactive) in assay [7]; 2.44 µM (inactive) in assay [8]; 7.5 µM (inactive) in assay [9]; 2.13 µM (inactive) in assay [10]; 2.27 µM (inactive) in assay [11]; 4.47 µM (inactive) in assay [12]. Also, the GI50 was 5.42 µM (inactive) in assay [13]; 6.41 µM (inactive) in assay [14]; 14.4 µM (inactive) in assay [15]; 3.71 µM (inactive) in assay [16]; 2.92 µM (inactive) in assay [17]; 4.79 µM (inactive) in assay [18]. Further, the GI50 in assay [19] is 11.1 µM (inactive); in assay [20], 10.3 µM (inactive).

In the case of `CC1=C(C(=O)N(C(C)C)C(C)C)CC(C(=O)N(C(C)C)C(C)C)=C(C)N1`, the GI50 in [1], in assay [2], in assay [3], in [4], in assay [5] and in assay [6] was > 100 µM (inactive) throughout. Further, the GI50 in assay [7] was > 100 µM (inactive); in assay [8], > 100 µM (inactive); in assay [9], > 100 µM (inactive); in [10] it was > 100 µM (inactive); in assay [11], 54.1 µM (inactive); in assay [12], 79.8 µM (inactive). The GI50 in [13], in [14], in assay [15], in assay [16], in assay [17] and in [18] was > 100 µM (inactive) throughout. Besides, the GI50 in assay [19] and in [20] was > 100 µM (inactive) each time.

For `C=C1c2nc3ccccc3n2C=C(c2ccc(Cl)cc2)N1c1ccc(OCCN2CCCCC2)cc1`, the GI50 in assay [1] was > 45 µM (inactive); in assay [2], > 45 µM (inactive); in [3], > 45 µM (inactive); in [4], > 45 µM (inactive); in assay [5], > 100 µM (inactive); in assay [6], > 45 µM (inactive). Moreover, the GI50 was > 45 µM (inactive) in assay [7]; > 45 µM (inactive) in [8]; > 45 µM (inactive) in assay [9]; > 45 µM (inactive) in assay [10]; > 45 µM (inactive) in assay [11]; 1.59 µM (inactive) in [12]. Further, the GI50 in [13] was 6.32 µM (inactive); in assay [14], 14.8 µM (inactive); in assay [15] it was > 45 µM (inactive); in [16] it was > 45 µM (inactive); in assay [17] it was 2.43 µM (inactive); in [18], > 45 µM (inactive). The GI50 in assay [19] and in assay [20] was > 45 µM (inactive) each time.

As to `CCCCCCCCCCCC[C@@H](O)[C@H]1CC[C@H]([C@H](O)CCCC[C@H](O)CCCCC[C@@H](O)CC2=C[C@H](C)OC2=O)O1`, the GI50 in assay [1] is 2.82 µM (inactive); in assay [2] it was 0.116 µM (active); in assay [3], 2.64 µM (inactive); in assay [4], 1.18 µM (inactive); in assay [5], 3.43 µM (inactive); in assay [6], 2.59 µM (inactive). For the same molecule, the GI50 in assay [7] was 2.34 µM (inactive); in assay [8] it was 0.213 µM (active); in assay [9], 3.35 µM (inactive); in assay [10], 1.19 µM (inactive); in assay [11] it was 3.31 µM (inactive); in assay [12], 1.98 µM (inactive). Also, the GI50 is 2.08 µM (inactive) in [13]; 0.565 µM (active) in assay [14]; 1.18 µM (inactive) in assay [15]; 3.74 µM (inactive) in [16]; 0.362 µM (active) in assay [17]; 0.867 µM (active) in [18]. Moreover, the GI50 in assay [19] was 3.78 µM (inactive); in [20], 3.07 µM (inactive).
